Test results taken from US10160785B2, “Antimicrobial peptides and their use for the treatment of topical infections” (priority 2015, dated 2018).
In brackets after ≈: the same amount, converted by molar mass.

What was measured:
Format in all cases: cell-based
[1] = test system: Candida dubliniensis ATCC MYA-646; test: microbe, parasite or virus in culture; conditions: Candida dubliniensis; RPMI broth microdilution, 35° C., 48 hours, visual; read-out: Antifungal activity MIC C. dubliniensis ATCC MYA-646
Procedure: (§1) All yeasts Candida albicans (Olomouc) and ATCC MYA-2876, Candida glabrata ATCC 2001 and DSY 565, Candida dubliniensis ATCC MYA-646, Candida krusei ATCC 6258 and Candida tropicalis ATCC 750 were sub-cultured from sterile vials onto Sabouraud dextrose agar, which was composed of 40 g dextrose (Penta, Czech Republic), 10 g peptone (OXOID, Great Britain) and 17 g agar (OXOID), dissolved in 1 l of distilled water, and cultivated for 24 hours at 35° C.
(§2) All strains were stored in a way that minimizes the possibility of mutation. Candida spp. were grown overnight in liquid YPD medium which is composed of 10 g yeast extract (DIFCO, USA), 20 g peptone (OXOID), and 20 g dextrose (Penta) dissolved in 1 l distilled water. Then the overnight culture was cryogenically preserved by suspending in 50% glycerol solution (1:1) in small vials and stored at −80° C.
(§3) The inoculum was prepared by picking five colonies from 24-hour-old cultures of Candida spp. The colonies were suspended in 1 ml of sterile saline solution and vortexed for 15 seconds. Optical density of the suspension was adjusted spectrophotometrically by adding sterile saline solution to produce optical density of 0.18 at 600 nm. A working suspension was made by a 1:50 dilution followed by a 1:20 dilution of the stock suspension with RPMI 1640 broth medium which was composed of L-glutamine without NaHCO3 (BioSera, France), and with 0.165 mol.l^−1 MOPS (Duchefa, Netherland)—further as RPMI broth medium.
(§4) The broth microdilution test was performed by using sterile, disposable, multi-well microdilution plates (96-well). The peptides in the concentrations 0.625-160 μmol.l^−1 were pipetted into the wells in 100 μl volumes. Each well of the plate was inoculated with 100 μl of the diluted inoculum suspension. Final yeast density in each well was 5×10^2 up to 2.5×10^3 CFU/ml. The microdilution plates were incubated without shaking at 35° C. and observed for the presence or absence of visible growth for 48 hours.
(§5) Drug-free medium without inoculation served as negative control; the growth positive control contained inoculated drug-free medium. Amphotericin B was used as control drug to ensure quality of Candida strains.
(§6) The minimal inhibition concentrations (MICs) were visually determined 48 hours after inoculation. The MIC values were defined as the lowest concentration in which no observable growth is noticeable.
(§7) All yeast isolates were obtained from the Institute of Physiology of the Academy of Sciences of the Czech Republic. Candida albicans (Olomouc) came from the Faculty of Medicine and Dentistry, Palacý University Olomouc.

[2] = test system: Candida glabrata ATCC 2001; test: microbe, parasite or virus in culture; conditions: Nakaseomyces glabratus, ATCC2001; RPMI broth microdilution, 35° C., 48 hours, visual; read-out: Antifungal activity MIC C. glabrata ATCC 2001
Procedure: as §1, §2, §3, §4, §5, §6, §7

Candida krusei ATCC 6258 = test: microbe, parasite or virus in culture; conditions: Pichia kudriavzevii, ATCC6258; RPMI broth microdilution, 35° C., 48 hours, visual; read-out: Antifungal activity MIC C. krusei ATCC 6258
Procedure: as §1, §2, §3, §4, §5, §6, §7

[3] = test system: Candida tropicalis ATCC 750; test: microbe, parasite or virus in culture; conditions: Candida tropicalis, ATCC750; RPMI broth microdilution, 35° C., 48 hours, visual; read-out: Antifungal activity MIC C. tropicalis ATCC 750
Procedure: as §1, §2, §3, §4, §5, §6, §7

[4] = test system: Candida albicans ATCC MYA-2876; test: microbe, parasite or virus in culture; conditions: Candida albicans; RPMI broth microdilution, 35° C., 48 hours, visual; read-out: Antifungal activity MIC C. albicans ATCC MYA-2876
Procedure: as §1, §2, §3, §4, §5, §6, §7

[5] = test system: Candida albicans (Olomouc); test: microbe, parasite or virus in culture; conditions: Candida albicans; RPMI broth microdilution, 35° C., 48 hours, visual; read-out: Antifungal activity MIC C. albicans Olomouc
Procedure: as §1, §2, §3, §4, §5, §6, §7

Candida glabrata DSY 565 = test: microbe, parasite or virus in culture; conditions: Nakaseomyces glabratus, DSY565; RPMI broth microdilution, 35° C., 48 hours, visual; read-out: Antifungal activity MIC C. glabrata DSY 565
Procedure: as §1, §2, §3, §4, §5, §6, §7

[6] = test system: Candida albicans (Olomouc) biofilm; test: C. albicans biofilm, remaining metabolic activity (XTT)
Procedure: Candida albicans (Olomouc) was sub-cultured overnight in YPD medium (10 g yeast extract (DIFCO, USA), 20 g peptone (OXOID), 20 g glucose (Penta) dissolved in 1 L of distilled water) at constant shaking (100 RPM) at 37° C. Next day, the overnight culture was diluted 1:100 into fresh YPD medium and incubated at constant shaking (200 RPM) at 37° C. until the mid-exponential growth phase was reached. Then the cells were harvested and washed twice by centrifugation in physiological solution (5000 RPM; 5 min). Cells were suspended in sterile salt solution and their optical density was determined at 600 nm.
A final yeast suspension was prepared at a cell density of 1×10^6 CFU (corresponding to optical density of 0.17 at 600 nm) in RPMI 1640 medium with L-glutamine (BioSera), NaHCO3 (2 g/l; Penta) and 0.165 mol.l^−1 MOPS (Duchefa)—further as RPMI broth medium 1.
Biofilms were formed on commercially available sterile, polystyrene, flat-bottomed, 96-well microtiter plates (TPP, SW). Cell suspension (100 μl) was pipetted into selected wells of a microtiter plate and incubated without shaking for 2 hours at 37° C. Afterwards, the wells were washed twice with sterile PBS buffer (1.44 g Na2HPO4, 0.24 g KH2PO4, 0.2 g KCl and 8 g NaCl in 1 l distilled water, pH=7; Penta). Fresh RPMI broth medium 1 (100 μl) was added to each well and the plate was sealed with parafilm and incubated without shaking for 48 hours at 37° C.
Planktonic and non-adherent cells were removed by threefold washing of the biofilm with sterile PBS buffer (200 μl). A twofold serial dilution was used to reach required peptide concentration (in RPMI broth medium 1) in each well. Peptide concentrations range was between 0.39-200 μmol.l^−1. Plates were then sealed with parafilm and incubated for 20 hours at 37° C.
The metabolic activity of surviving Candida cells in the treated biofilm was determined by staining with XTT (2,3-Bis(2-methoxy-4-nitro-5-sulphophenyl)-2H-tetrazolium-5-carboxanilide). Stock solution of PMS (phenazine methosulfate; 7.5 g/l; SIGMA, Czech Republic) stored at −20° C. was diluted in PBS buffer 1:100. Diluted PMS was further mixed (2:25) with stock solution of XTT (0.5 g/l; Alchimica, Slovakia) dissolved in PBS/RPMI broth medium (1:1). Mixture (100 μl) of PMS and XTT was added into treated biofilm in the wells and incubated for 90 min at 37° C. Then the intensity of staining in each well was measured as absorbance at 540 nm on a Tecan Infinite M200 Pro reader (Tecan GmbH, Austria). Remaining metabolic activity of the cells in the biofilm was expressed for each well in percentage and calculated as follows:
[formula] where A is the absorbance of tested compound, ABL is the absorbance of negative control and AC is the absorbance of control untreated biofilm. The non-inoculated wells served as negative control. Inoculated wells not treated with compound served as positive control. Amphotericin B was used as control drug to ensure quality of Candida albicans. The values of remaining metabolic activity of treated biofilms are shown at Table 5.

MIC [1]: 1.8 µM (≈ 0.551 µg/mL)
MIC [2]: 267 µM (≈ 81.7 µg/mL)
MIC (Candida krusei ATCC 6258): 516 µM (≈ 158 µg/mL)
MIC [3]: 49.3 µM (≈ 15.1 µg/mL)
MIC [4]: 2.2 µM (≈ 0.674 µg/mL)
MIC [5]: 2 µM (≈ 0.613 µg/mL)
MIC (Candida glabrata DSY 565): 950 µM (≈ 291 µg/mL)
Structure (SMILES): OC(Cn1cncn1)(Cn1cncn1)c1ccc(F)cc1F [Fluconazole, reference compound]
Metabolic activity of C. albicans (%) ([6]; peptide concentration 6.25 μmol · l^−1, 20 hours): 33.5%
Metabolic activity of C. albicans (%) ([6]; peptide concentration 12.5 μmol · l^−1, 20 hours): 30.8%
Metabolic activity of C. albicans (%) ([6]; peptide concentration 25 μmol · l^−1, 20 hours): 31.7%
Metabolic activity of C. albicans (%) ([6]; peptide concentration 50 μmol · l^−1, 20 hours): 30.7%
Metabolic activity of C. albicans (%) ([6]; peptide concentration 100 μmol · l^−1, 20 hours): 32.4%
Metabolic activity of C. albicans (%) ([6]; peptide concentration 200 μmol · l^−1, 20 hours): 29.2%
